Reference: US9113629B2, “4-amino-6-(4-substituted-phenyl)-picolinates and 6-amino-2-(4-substituted-phenyl)-pyrimidine-4-carboxylates and their use as herbicides” (DOW AGROSCIENCES LLC, priority 2013, dated 2015)
Read-outs that look alike come from different tables or passages of the source.

How the values were obtained:
[1] = tested on: Key Broadleaf Weed and Crop Species; experiment: Post-emergent Test II herbicidal activity (Table 5); format: in vivo; conditions: post-emergence, 336 h, post-emergent, 14 days after application; for pest or weed control at 70 g/ha: 70 g ai/ha; for pest or weed control at 140 g/ha: 140 g ai/ha
In short: (§1)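 Plants grown in Metro-Mix 360 (pH 6.0–6.8) in a greenhouse (~15 h photoperiod, 23–29 °C day) to first or second true leaf stage, then sprayed with compound in acetone/DMSO/aqueous crop-oil-surfactant carrier at 187 L/ha by track sprayer. Injury visually scored 0–100% versus untreated plants after 14 d.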

[2] = tested on: Key Grass and Sedge Weeds as well as Grass Crops; experiment: Post-emergent Test II herbicidal activity (Table 6); format: in vivo; conditions: post-emergence, 336 h; for pest or weed control at 70 g/ha: application rate 70 g ai/ha; for pest or weed control at 140 g/ha: application rate 140 g ai/ha
In short: as §1

[3] = ABUTH: velvetleaf (Abutilon theophrasti), read-out: Visual Growth Reduction (%) 14 Days After Application ABUTH
[4] = AMARE: redroot pigweed (Amaranthus retroflexus), read-out: Visual Growth Reduction (%) 14 Days After Application AMARE
[5] = BRSNN: oilseed-rape, canola (Brassica napus), read-out: Visual Growth Reduction (%) 14 Days After Application BRSNN
[6] = CHEAL: lambsquarters (Chenopodium album), read-out: Visual Growth Reduction (%) 14 Days After Application CHEAL
[7] = EPHHL: wild poinsettia (Euphorbia heterophylla), read-out: Visual Growth Reduction (%) 14 Days After Application EPHHL
[8] = HELAN: sunflower (Helianthus annuus), read-out: Visual Growth Reduction (%) 14 Days After Application HELAN
[9] = VIOTR: wild pansy (Viola tricolor), read-out: Visual Growth Reduction (%) 14 Days After Application VIOTR
[10] = Triticum aestivum, TRZSS (wheat), read-out: Visual Growth Reduction (%) 14 Days After Application, TRZSS
[11] = CYPES: yellow nutsedge (Cyperus esculentus), read-out: Visual Growth Reduction (%) 14 Days After Application, CYPES
[12] = DIGSA: crabgrass (Digitaria sanguinalis), read-out: Visual Growth Reduction (%) 14 Days After Application, DIGSA
[13] = ECHCG: barnyardgrass (Echinochloa crus-galli), read-out: Visual Growth Reduction (%) 14 Days After Application, ECHCG
[14] = ORYSA: rice (Oryza sativa), read-out: Visual Growth Reduction (%) 14 Days After Application, ORYSA
[15] = SETFA: giant foxtail (Setaria faberi), read-out: Visual Growth Reduction (%) 14 Days After Application, SETFA
[16] = SORVU: grain sorghum (Sorghum vulgare), read-out: Visual Growth Reduction (%) 14 Days After Application, SORVU
[17] = ZEAMX: maize, corn (Zea mays), read-out: Visual Growth Reduction (%) 14 Days After Application, ZEAMX

Nc1c(Cl)c(C(=O)O)nc(-c2ccc(I)cc2)c1Cl [Compound 173]
pest or weed control at 70 g/ha [1, 3]: 60 to 74% | pest or weed control at 140 g/ha [1, 3]: 85 to 94% | pest or weed control at 70 g/ha [1, 4]: 85 to 94% | pest or weed control at 140 g/ha [1, 4]: 95 to 100% | pest or weed control at 70 g/ha [1, 5]: 85 to 94% | pest or weed control at 140 g/ha [1, 5]: 85 to 94% | pest or weed control at 70 g/ha [1, 6]: 85 to 94% | pest or weed control at 140 g/ha [1, 6]: 85 to 94% | pest or weed control at 70 g/ha [1, 7]: 0 to 29% | pest or weed control at 140 g/ha [1, 7]: 45 to 59% | pest or weed control at 70 g/ha [1, 8]: 95 to 100% | pest or weed control at 140 g/ha [1, 8]: 95 to 100% | pest or weed control at 70 g/ha [1, 9]: 0 to 29% | pest or weed control at 140 g/ha [1, 9]: 0 to 29% | pest or weed control at 70 g/ha [2, 10]: 60 to 74% | pest or weed control at 140 g/ha [2, 10]: 60 to 74% | pest or weed control at 70 g/ha [2, 11]: 95 to 100% | pest or weed control at 140 g/ha [2, 11]: 95 to 100% | pest or weed control at 70 g/ha [2, 12]: 60 to 74% | pest or weed control at 140 g/ha [2, 12]: 75 to 84% | pest or weed control at 70 g/ha [2, 13]: 75 to 84% | pest or weed control at 140 g/ha [2, 13]: 75 to 84% | pest or weed control at 70 g/ha [2, 14]: 0 to 29% | pest or weed control at 140 g/ha [2, 14]: 0 to 29% | pest or weed control at 70 g/ha [2, 15]: 75 to 84% | pest or weed control at 140 g/ha [2, 15]: 85 to 94% | pest or weed control at 70 g/ha [2, 16]: 75 to 84% | pest or weed control at 140 g/ha [2, 16]: 85 to 94% | pest or weed control at 70 g/ha [2, 17]: 60 to 74% | pest or weed control at 140 g/ha [2, 17]: 75 to 84%
